Measurements published in US20160354300A1, “Low Viscosity Hair Care Composition” (The Procter & Gamble Company, priority 2015, published 2016).
Structures can show the parent of a compound that is named as a salt.

How the values were obtained:
[1] = Kinematic viscosity at 40 C of surfactant base formulation with added agent (Cannon viscometer); assay type: physicochemical; details: for Lowest viscosity achieved (cSt): Table 1, base formulation 24% sodium undecyl sulfate, 6% lauramidopropyl betaine, 1.6% perfume, agent at 2%, 4%, 6%, 8%, 40° C.; for Kinematic viscosity at 40 C. [cSt], 2% oil: agent added at 2% to base formulation; for Kinematic viscosity at 40 C. [cSt], 4% oil: agent added at 4% to base formulation; for Kinematic viscosity at 40 C. [cSt], 6% oil: agent added at 6% to base formulation; for Kinematic viscosity at 40 C. [cSt], 8% oil: agent added at 8% to base formulation
Excerpt: Referring to Tables 1 and 2, the base formulations were made by mixing 1.6% perfume, 24% sodium undecyl sulfate (CAS#1072-24-8) active, 6% lauramidopropyl betaine (CAS#4292-10-8) active and 60.4% deionized water which leaves 8% unfilled for the addition of a viscosity reducing agent (the balance being filled in by distilled water). For all compositions, the surfactant, water and additives including viscosity reducing agents were expected to be in a single phase.
The agents from Tables 1 and 2 were added to the base formulation at a percentage of 2%, 4%, 6%, and 8% into the above surfactant solution. The subsequent formulations were vortexed and put into oven at 60° C. overnight to form homogeneous solution. The viscosities of the formulations were measured with calibrated viscometers (Size 200/350/450) from Cannon Instrument Company (2139 High Tech Road, State College, Pa., USA, 16803).
After the equilibration, the formulations were drawn to reach the starting mark with a rubber suction bulb and the flow time between the starting mark and end mark was recorded for calculation. Each formulation was measured three times to calculate average and standard deviation. Between samples, viscometer was cleaned with water and acetone to rinse off residual.
Viscosity values were calculated based on the equation:
Viscosity (mm^2/s·(cSt))=Time (s)*Constant (mm^2/s^2·(cSt/s))
The time in the above equation is the flow time recorded in the experiment and the constant numbers for each calibrated viscometer were obtained from the manuals. […]
The viscosities of the formulations are measured with calibrated viscometers (Size 200/350/450) from Cannon Instrument Company (2139 High Tech Road, State College, Pa., USA, 16803). Prior to the measurement, the formulations are equilibrated in the viscometer reservoir for 30 min at 40° C. in water bath to ensure a homogeneous temperature is reached in the system. […]

[2] = Visual cloudiness of surfactant formulation with added agent after 20:1 dilution with water; assay type: physicochemical; set-up: key: Samples that appeared cloudy (turbid) within less than a day were noted as cloudy (“Yes”); Samples that did not appear cloudy (turbid) within less than a day were noted as not cloudy (“No”); details: 0.5 g formula, 10 ml deionized water; for Cloudy at 1:20 dilution at 2%, 4%, and/or 6%: Table 3, visual, within less than a day; for Added at 2%: cloudy at 20:1 dilution: agent at 2%; for Added at 4%: cloudy at 20:1 dilution: agent at 4%; for Added at 6%: cloudy at 20:1 dilution: agent at 6%; for Added at 8%: cloudy at 20:1 dilution: agent at 8%
Description: Now referring to Tables 3 and 4, the following surfactant formulations were made by mixing 1.6% perfume, 24% sodium undecyl sulfate (CAS#1072-24-8) active, 6% lauramidopropyl betaine (CAS#4292-10-8) active, and 60.4% deionized water which leaves 8% unfilled for the addition of the listed agents (the balance being filled in by distilled water). The agents were added at a percentage of 2%, 4%, 6%, and 8% into the above surfactant formulation. The resulting formulations were vortexed and put into oven at 60° C. overnight to form homogeneous solution. For all formulations, the surfactant, water and additives, including the added agents, were expected to be in a single phase.
The resulting formulations were weighed out in a scintillation vial combined with 10 ml of water to achieve a representative dilution during use: 0.5 g formula, 10 ml deionized water for 20:1 dilution. After the combination of the ingredients, the vial was vigorously shaken by hand and the samples were visually inspected by looking at the solution against a dark background. Samples that appeared cloudy (turbid) within less than a day were noted as cloudy (“Yes”). […] Samples that appeared cloudy at the 20:1 dilution for any of the 2%, 4% or 6% concentration of oil may be most desirable by requiring a limited amount of the agent to be added, limiting cost and trade-offs associated with higher levels.
The appearance of a cloudy formulation at 1:20 dilution at 2%, 4%, and/or 6% can signal improved deposition of surfactant soluble active agents during consumer use.

SMILES	Lowest viscosity achieved (cSt) [1] [cSt]	Kinematic viscosity at 40 C. [cSt], 2% oil [1] [cSt]	Kinematic viscosity at 40 C. [cSt], 4% oil [1] [cSt]	Kinematic viscosity at 40 C. [cSt], 6% oil [1] [cSt]	Kinematic viscosity at 40 C. [cSt], 8% oil [1] [cSt]	Cloudy at 1:20 dilution at 2%, 4%, and/or 6% [2]	Added at 2%: cloudy at 20:1 dilution [2]	Added at 4%: cloudy at 20:1 dilution [2]	Added at 6%: cloudy at 20:1 dilution [2]	Added at 8%: cloudy at 20:1 dilution [2]
C=C(C)[C@H]1CC=C(C)CC1 [Dipentene]	35	307.6	74.5	35.1	42.6	Yes	No	No	Yes	Yes
CC1=CC=C(C(C)C)CC1 [alpha-Terpinene]	42	324.4	96.0	41.5	46.7	Yes	No	No	Yes	Yes
CCCCOC(=O)c1ccccc1O [Butyl Salicylate]	368	367.9				No	No			
CC(=O)OCCC(C)CCCC(C)C (centres unmarked) [3,7-Dimethyloctyl Acetate]	446	445.7				No	No			
CCCCCCC1C(=O)CCC1C(=O)OC (centres unmarked) [Dihyro Iso Jasmonate]	119	334.9	119.1			No	No			
CCCCCCCC(OC)OC [1,1-Dimethoxyoctane]	308	500.7	308.1							
CCCCCC(=O)OCC(C)C [Isobutyl Hexanoate]	109	390.0	177.9	140.9	109.4	No	No	No	No	Yes
COC(C)(C)C1CC=C(C)CC1 (centres unmarked) [Orange Flower Ether]	419	552.2	418.8							
CC12CCC(CC1=O)C2(C)C (centres unmarked) [Camphor Gum]	127	365.8	127.2							
CC(C)=CCC/C(C)=C/COC(=O)Cc1ccccc1 [Geranyl Phenyl Acetate]	34	224.0	76.0	34.3	36.6	Yes	Yes	Yes	Yes	Yes
C=CC(C)(CCC=C(C)C)OC(=O)C(C)C (centres unmarked) [Linalyl Iso Butyrate]	38	223.4	73.0	37.7	39.9	Yes	No	No	Yes	Yes
CC(=O)CCc1ccc(O)cc1 [Raspberry Ketone]	33	151.9	107.4	54.0	33.0					
CC(CC=O)CCCC(C)(C)O (centres unmarked) [Hydroxycitronellal]	34	310.8	145.4	65.9	34.1					
CC12CCC(CC1)C(C)(C)O2 [Eucalyptol]	203	527.3	292.9	203.1		No	No	No	No	
CCCCCCCCCCCCCC(=O)OC(C)C [Iso Propyl Myristate]	30	234.2	53.7	30.4	45.0	Yes	No	No	Yes	Yes
CCCCCC1(C)CCC(C)(C)C1=O (centres unmarked) [Veloutone]	47	260.2	129.1	56.3	47.3	Yes	No	No	Yes	Yes
CC(C)CC=C(C=O)C(C)C [2-Isopropyl-5-methyl-2-hexenal]	332	332.3				No	No	No		
C=C(C)[C@H]1CC=C(C)CC1 [Limonene]	86	366.5	166.8	97.5	86.4					
CCOC(=O)CC(O)(CC(=O)OCC)C(=O)OCC [Triethyl Citrate]	41	269.4	136.6	66.6	40.5					
CCO [Ethanol]	29	205.6	111.0	50.8	29.2					
CCC(CC(C)CC)=NO (centres unmarked) [5-Methyl-3-Heptanone Oxime]	246	246.3								
CCC(=O)O[C@@H]1C[C@H]2CC[C@]1(C)C2(C)C (racemic) [Iso Bornyl Propionate]	463	463.1								
